The test system of experiment [1] is T98 Glioblastoma cell line. Briefly: Antiproliferative activity, T98. Particulars: Homo sapiens, T98, T98. The experiment is classed as cell-based, human. Here is the method:
A study was conducted to evaluate the inhibitory activity of compounds of Formula (I) in inhibiting HDAC6, antiproliferative activity of test compounds in suppressing cancer cell growth, and selectivity of inhibiting HDAC6 over other HDAC isoforms.
The study was performed according to the protocol reported in Hsieh et al., Cell Death and Disease, 2014, April; 5:e1166.
Shown in Table 2 below are antiproliferative activities (measured by their half maximal concentration for inhibiting cell growth, i.e., GI50) of the test compounds against various cancer cell lines.

Experiment [2] has as its system APP in pCAX APP 695 plasmid-transfected Neuro 2a cells. Briefly: Amyloid precursor protein (APP) levels, Western blot. The experiment is classed as cell-based. Particulars: pCAX APP 695 transfected neuro 2a cells; 0.1-10 μM, 24 hours. The procedure:
A study was conducted to evaluate the effect of compounds of Formula (I) in amyloid precursor protein (APP) levels and Aβ42 production.
Neuro 2a cells (1×10^6) in 6-well plates were transfected with pCAX APP 695 plasmid for 24 hours, then incubated for another 24 hours with Compound 12, Compound 28, or tubasatin A (0.1-10 μM). Cells were then harvested and cell lysates were prepared for Western blot analysis of the APP proteins.

For experiment [3], the system named is HL-60 Acute promyelocytic leukemia. Briefly: Tumor growth inhibition, HL-60 xenograft. The experiment is classed as in vivo, athymic nude mice. Particulars: qd, intraperitoneal. The procedure: An in vivo study was conducted to evaluate the efficacy of compounds of Formula (I) in suppressing tumor growth in multiple human cancer types.
Eight-week-old athymic nude mice were group-housed under conditions of constant photoperiod (12 h light/12 h dark at 21-23° C. and 60-85% humidity) with ad libitum access to sterilized food and water. All animal experiments followed ethical standards, and protocols were reviewed and approved by the Animal Use and Management Committee of National Taiwan University. Each mouse was inoculated subcutaneously with 1×10^6˜1×10^7 human cancer cells in a total volume of 0.1 mL serum-free medium containing 50% Matrigel (BD Biosciences). As tumors became established (˜100 mm^3), mice were randomized to various groups to be treated with pre-determined materials (n=6-8/group): (i) control group: 0.5% DMSO/0.5% Cremophor/90% D5W and (ii) treatment groups: Compounds 12 and 28 at pre-determined doses daily. Mice received treatment by intraperitoneal injection for the duration of the study. Tumors were measured weekly using calipers. Tumor size, in mm^3, was calculated according to the formula: Tumor volume=(w^2×l)/2, where w and 1 respectively represent the width and length (both in mm) of the tumor.

In general, GI50 refers to the concentration that inhibits growth by half. A lower GI50 goes with greater sensitivity of the cells.

For the compound `O=C(NO)c1ccc(CNc2cccc3cccnc23)cc1` [Compound 28, N-hydroxy-4-((quinolin-8-ylamino)methyl)benzamide], the GI50 in experiment [1] was 9.89 ± 0.92 µM. The APP expression entry in experiment [2] is given as “markedly reduced the APP expression”. Besides, the “% TGI” value in experiment [3] (25 mg/kg) turned out to be 47.4%; in experiment [3] (50 mg/kg) it was 61.1%.

The values above are taken from patent publication US11427544B2, “Histone deacetylase 6 inhibitors and use thereof” (TAIPEI MEDICAL UNIVERSITY, priority 2016, dated 2022).
